Data published in PubChem BioAssay (NCI).
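Dose response: 5 concentrations. Exposure: 48 h. Format: 96-well plates. Endpoint: linear interpolation; highest concentration if not reached. TGI is the concentration that stops growth completely.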

Experiments:
Test in all cases: DTP human tumour cell line panel, 48 h
MDA-N = tested on: MDA-N
SK-MEL-5 melanoma = tested on: SK-MEL-5 melanoma
CAKI-1 renal = tested on: CAKI-1 renal
TK-10 renal = tested on: TK-10 renal
SF-268 CNS = tested on: SF-268 CNS
COLO 205 colon = tested on: COLO 205 colon
PC-3 prostate = tested on: PC-3 prostate
MDA-MB-231 breast = tested on: MDA-MB-231 breast
M14 melanoma = tested on: M14 melanoma
RPMI-8226 leukemia = tested on: RPMI-8226 leukemia

## Cc1cc(O)c(C(C)C)cc1N=Cc1ccccc1O
MDA-N
  TGI: 17 µM
SK-MEL-5 melanoma
  TGI: 18.8 µM
CAKI-1 renal
  TGI: 25.4 µM
TK-10 renal
  TGI: 26.9 µM
SF-268 CNS
  TGI: 21.4 µM
COLO 205 colon
  TGI: 42.3 µM
PC-3 prostate
  TGI: 22.4 µM
MDA-MB-231 breast
  TGI: 3.59 µM
M14 melanoma
  TGI: 31.4 µM

## CC1(C)CC[C@]2(C(=O)O)[C@H](O)C[C@]3(C)C(=CC[C@@H]4[C@@]5(C)CC[C@H](OC6OC(C(=O)O)C(O)C(O)C6O)C(C)(C)[C@@H]5CC[C@]43C)[C@@H]2C1 (stereo partly drawn)
MDA-N
  TGI: > 100 µM
SK-MEL-5 melanoma
  TGI: > 100 µM
CAKI-1 renal
  TGI: > 100 µM
SF-268 CNS
  TGI: > 100 µM
COLO 205 colon
  TGI: > 100 µM
PC-3 prostate
  TGI: > 100 µM
M14 melanoma
  TGI: > 100 µM
RPMI-8226 leukemia
  TGI: > 100 µM

## CC1(C)C2CCC(N)(C2)C1O (stereo not drawn)
MDA-N
  TGI: > 100 µM
SK-MEL-5 melanoma
  TGI: > 100 µM
CAKI-1 renal
  TGI: > 100 µM
TK-10 renal
  TGI: > 100 µM
COLO 205 colon
  TGI: > 100 µM
PC-3 prostate
  TGI: > 100 µM
M14 melanoma
  TGI: > 100 µM
RPMI-8226 leukemia
  TGI: > 100 µM

## O=C1NC2(C=Cc3c(ccc4ccccc34)O2)Oc2ccccc21 (stereo not drawn)
SK-MEL-5 melanoma
  TGI: 29.5 µM
TK-10 renal
  TGI: > 100 µM
SF-268 CNS
  TGI: 58.3 µM
COLO 205 colon
  TGI: 42.5 µM
M14 melanoma
  TGI: > 100 µM
RPMI-8226 leukemia
  TGI: 47.6 µM

## Brc1cccc[n+]1-c1ccc2cc(-[n+]3ccccc3Br)ccc2c1
SK-MEL-5 melanoma
  TGI: > 100 µM
CAKI-1 renal
  TGI: > 100 µM
TK-10 renal
  TGI: 37.6 µM
SF-268 CNS
  TGI: 90.4 µM
COLO 205 colon
  TGI: > 100 µM
PC-3 prostate
  TGI: > 100 µM
MDA-MB-231 breast
  TGI: 85.6 µM
M14 melanoma
  TGI: > 100 µM
RPMI-8226 leukemia
  TGI: 63.8 µM

## C[N+](C)(C)CC1CCCC/C1=N\O (stereo not drawn)
TK-10 renal
  TGI: > 100 µM
SF-268 CNS
  TGI: > 100 µM
COLO 205 colon
  TGI: > 100 µM
M14 melanoma
  TGI: > 100 µM
RPMI-8226 leukemia
  TGI: > 100 µM

## CC1(C)c2ccccc2C(O)C12CCC(=O)CC2 (stereo not drawn)
MDA-N
  TGI: > 100 µM
SK-MEL-5 melanoma
  TGI: > 100 µM
TK-10 renal
  TGI: > 100 µM
SF-268 CNS
  TGI: > 100 µM
COLO 205 colon
  TGI: > 100 µM
PC-3 prostate
  TGI: > 100 µM
MDA-MB-231 breast
  TGI: > 100 µM
M14 melanoma
  TGI: > 100 µM
RPMI-8226 leukemia
  TGI: > 100 µM

## COc1ccc(C2C(Cl)C(=O)N2NC(=O)Cc2ccccc2)cc1OC (stereo not drawn)
SK-MEL-5 melanoma
  TGI: > 100 µM
CAKI-1 renal
  TGI: > 100 µM
TK-10 renal
  TGI: > 100 µM
SF-268 CNS
  TGI: > 100 µM
COLO 205 colon
  TGI: > 100 µM
M14 melanoma
  TGI: > 100 µM
RPMI-8226 leukemia
  TGI: > 100 µM

## COC(=O)C1C2CC3C(OC(=O)C31)C2OC(=O)[C@](OC)(c1ccccc1)C(F)(F)F (stereo partly drawn)
SK-MEL-5 melanoma
  TGI: > 100 µM
CAKI-1 renal
  TGI: > 100 µM
TK-10 renal
  TGI: > 100 µM
SF-268 CNS
  TGI: > 100 µM
COLO 205 colon
  TGI: > 100 µM
M14 melanoma
  TGI: > 100 µM
RPMI-8226 leukemia
  TGI: > 100 µM

## Cc1ncc([N+](=O)[O-])n1CCNC(=O)CCCCCn1ccnc1[N+](=O)[O-]
MDA-N
  TGI: > 100 µM
SK-MEL-5 melanoma
  TGI: > 100 µM
CAKI-1 renal
  TGI: > 100 µM
SF-268 CNS
  TGI: > 100 µM
COLO 205 colon
  TGI: > 100 µM
PC-3 prostate
  TGI: > 100 µM
MDA-MB-231 breast
  TGI: > 100 µM
M14 melanoma
  TGI: > 100 µM

## O=C1C[C@H](c2ccc(O)c(O)c2)Oc2cc(O)cc(O)c21
SK-MEL-5 melanoma
  TGI: > 100 µM
CAKI-1 renal
  TGI: > 100 µM
TK-10 renal
  TGI: > 100 µM
SF-268 CNS
  TGI: > 100 µM
COLO 205 colon
  TGI: > 100 µM
M14 melanoma
  TGI: > 100 µM
RPMI-8226 leukemia
  TGI: > 100 µM

## CC1=CC(=O)/C(=C/n2c(=S)[nH]c3ccccc32)C(=O)O1
MDA-N
  TGI: > 100 µM
CAKI-1 renal
  TGI: > 100 µM
TK-10 renal
  TGI: > 100 µM
SF-268 CNS
  TGI: > 100 µM
COLO 205 colon
  TGI: > 100 µM
PC-3 prostate
  TGI: > 100 µM
MDA-MB-231 breast
  TGI: > 100 µM
M14 melanoma
  TGI: > 100 µM
RPMI-8226 leukemia
  TGI: > 100 µM

## C#CCCCC(=O)N(C(=O)CS(=O)CC)c1ccccc1 (stereo not drawn)
MDA-N
  TGI: > 100 µM
SK-MEL-5 melanoma
  TGI: > 100 µM
CAKI-1 renal
  TGI: > 100 µM
TK-10 renal
  TGI: > 100 µM
SF-268 CNS
  TGI: > 100 µM
COLO 205 colon
  TGI: > 100 µM
PC-3 prostate
  TGI: > 100 µM
MDA-MB-231 breast
  TGI: > 100 µM
M14 melanoma
  TGI: > 100 µM

## NCCCC[C@H](N)C(=O)Nc1ccc(-c2nc3ccccc3s2)cc1Cl
MDA-N
  TGI: 9.36 µM
SK-MEL-5 melanoma
  TGI: 25.9 µM
CAKI-1 renal
  TGI: 19.2 µM
TK-10 renal
  TGI: 26.2 µM
SF-268 CNS
  TGI: 25.5 µM
COLO 205 colon
  TGI: 17.9 µM
PC-3 prostate
  TGI: 31.2 µM
MDA-MB-231 breast
  TGI: 26.6 µM
M14 melanoma
  TGI: 13.8 µM

## CCN(CC)CCC(=O)c1ccc(Oc2ccc(F)cc2)cc1
MDA-N
  TGI: 31.9 µM
CAKI-1 renal
  TGI: 30.9 µM
TK-10 renal
  TGI: 31.7 µM
SF-268 CNS
  TGI: 35.5 µM
COLO 205 colon
  TGI: 33.7 µM
PC-3 prostate
  TGI: 71.9 µM
MDA-MB-231 breast
  TGI: 31.2 µM
M14 melanoma
  TGI: 34.9 µM
RPMI-8226 leukemia
  TGI: 56.4 µM

## COc1cc2c(c(OC)c1OC)-c1ccc(SC)cc1C(=O)CC2
MDA-N
  TGI: 27.2 µM
SK-MEL-5 melanoma
  TGI: > 100 µM
CAKI-1 renal
  TGI: > 100 µM
TK-10 renal
  TGI: > 100 µM
PC-3 prostate
  TGI: > 100 µM
M14 melanoma
  TGI: > 100 µM
RPMI-8226 leukemia
  TGI: > 47.7 µM

## N=C(c1cccs1)C1(N2CCCCC2)CCCCC1
MDA-N
  TGI: > 100 µM
CAKI-1 renal
  TGI: 32.9 µM
TK-10 renal
  TGI: 35.7 µM
SF-268 CNS
  TGI: 50.8 µM
PC-3 prostate
  TGI: 81.8 µM
MDA-MB-231 breast
  TGI: 31 µM
M14 melanoma
  TGI: 47.4 µM
RPMI-8226 leukemia
  TGI: 33.8 µM

## COc1ccc(N2C(=O)C3CC4=CC(=O)C[C@H]4[C@H]32)cc1 (stereo partly drawn)
MDA-N
  TGI: 82.1 µM
CAKI-1 renal
  TGI: 87.6 µM
TK-10 renal
  TGI: > 100 µM
SF-268 CNS
  TGI: > 100 µM
COLO 205 colon
  TGI: > 100 µM
PC-3 prostate
  TGI: > 100 µM
MDA-MB-231 breast
  TGI: > 100 µM
M14 melanoma
  TGI: > 100 µM
RPMI-8226 leukemia
  TGI: > 100 µM

## COC[C@@H](Cc1ccc(OC)c(OC)c1)[C@@H](COC)Cc1ccc(OC)c(OC)c1
SK-MEL-5 melanoma
  TGI: > 100 µM
TK-10 renal
  TGI: > 100 µM
SF-268 CNS
  TGI: > 100 µM
COLO 205 colon
  TGI: > 100 µM
M14 melanoma
  TGI: > 100 µM
